Test results published in ChEMBL document CHEMBL1143416, “In vitro susceptibility to posaconazole of 1,903 yeast isolates recovered in France from 2003 to 2006 and tested by the method of the European committee on antimicrobial susceptibility testing” (2007).
In brackets after ≈: the same amount, converted by molar mass.

Legend:
Type in all cases: functional
Clavispora lusitaniae [1] = experiment: Antimicrobial activity against Candida lusitaniae isolate from superficial infection
Candida dubliniensis [2] = experiment: Antimicrobial activity against Candida dubliniensis blood isolate
Yarrowia lipolytica = experiment: Antimicrobial activity against Candida lipolytica isolate
Candida parapsilosis [3] = experiment: Antimicrobial activity against Candida parapsilosis blood isolate; settings: Lodderomyces parapsilosis
Apiotrichum loubieri = experiment: Antimicrobial activity against Trichosporon loubieri isolate
Cryptococcus neoformans [4] = experiment: Antimicrobial activity against Cryptococcus neoformans isolate
Candida albicans [5] = experiment: Antimicrobial activity against Candida albicans isolate from superficial infection
Candida tropicalis [6] = experiment: Antimicrobial activity against Candida tropicalis isolate
Candida tropicalis [7] = experiment: Antimicrobial activity against Candida tropicalis isolate from superficial infection
Candida parapsilosis [8] = experiment: Antimicrobial activity against Candida parapsilosis isolate from superficial infection; settings: Lodderomyces parapsilosis
[Candida] haemuloni = Antimicrobial activity against Candida haemulonii isolate; settings: Candidozyma haemuli
[Candida] inconspicua = Antimicrobial activity against Candida inconspicua isolate; settings: Pichia inconspicua
Candida tropicalis [9] = experiment: Antimicrobial activity against Candida tropicalis blood isolate
Nakaseomyces glabratus [10] = experiment: Antimicrobial activity against Candida glabrata blood isolate
Candida albicans [11] = experiment: Antimicrobial activity against Candida albicans blood isolate
Clavispora lusitaniae [12] = experiment: Antimicrobial activity against Candida lusitaniae blood isolate
Candida albicans [13] = experiment: Antimicrobial activity against Candida albicans isolate
[14] = tested on: Meyerozyma guilliermondii; experiment: Antimicrobial activity against Candida guilliermondii isolate from superficial infection
Pichia kudriavzevii [15] = experiment: Antimicrobial activity against Candida krusei isolate from superficial infection
Wickerhamomyces anomalus = experiment: Antimicrobial activity against Candida pelliculosa isolate; settings: Hansenula anomala
Debaryomyces hansenii = experiment: Antimicrobial activity against Candida famata isolate
Kluyveromyces marxianus [16] = experiment: Antimicrobial activity against Candida kefyr blood isolate
Kluyveromyces marxianus [17] = experiment: Antimicrobial activity against Candida kefyr isolate
Cyberlindnera jadinii = experiment: Antimicrobial activity against Candida utilis isolate; settings: Williopsis jadinii
Cryptococcus neoformans [18] = experiment: Antimicrobial activity against Cryptococcus neoformans isolate from superficial infection
Trichosporon inkin = experiment: Antimicrobial activity against Trichosporon inkin isolate
Magnusiomyces capitatus = experiment: Antimicrobial activity against Geotrichum capitatum isolate
Candida dubliniensis [19] = experiment: Antimicrobial activity against Candida dubliniensis isolate from superficial infection
Rhodotorula mucilaginosa = experiment: Antimicrobial activity against Rhodotorula mucilaginosa isolate
Clavispora lusitaniae [20] = experiment: Antimicrobial activity against Candida lusitaniae isolate
Nakaseomyces glabratus [21] = experiment: Antimicrobial activity against Candida glabrata isolate
Diutina rugosa = experiment: Antimicrobial activity against Candida rugosa isolate
Trichosporon asahii = experiment: Antimicrobial activity against Trichosporon asahii isolate
[Candida] palmioleophila = Antimicrobial activity against Candida palmioleophila isolate; settings: Suzukiozyma palmioleophila
[22] = tested on: Meyerozyma guilliermondii; experiment: Antimicrobial activity against Candida guilliermondii blood isolate
Trichosporon = experiment: Antimicrobial activity against Trichosporon isolate
Nakaseomyces glabratus [23] = experiment: Antimicrobial activity against Candida glabrata isolate from superficial infection
Cryptococcus neoformans [24] = experiment: Antimicrobial activity against Cryptococcus neoformans blood isolate
Kodamaea ohmeri = experiment: Antimicrobial activity against Pichia ohmeri isolate
Meyerozyma caribbica = experiment: Antimicrobial activity against Candida fermentati isolate
Pichia kudriavzevii [25] = experiment: Antimicrobial activity against Candida krusei isolate
Pichia kudriavzevii [26] = experiment: Antimicrobial activity against Candida krusei blood isolate
[27] = tested on: Meyerozyma guilliermondii; experiment: Antimicrobial activity against Candida guilliermondii isolate
[28] = tested on: Cutaneotrichosporon mucoides; experiment: Antimicrobial activity against Trichosporon mucoides isolate
Saccharomyces cerevisiae = experiment: Antimicrobial activity against Saccharomyces cerevisiae isolate
Candida parapsilosis [29] = experiment: Antimicrobial activity against Candida parapsilosis isolate; settings: Lodderomyces parapsilosis
Candida dubliniensis [30] = experiment: Antimicrobial activity against Candida dubliniensis isolate
Candida africana = experiment: Antimicrobial activity against Candida africana isolate

CC[C@@H]([C@H](C)O)n1ncn(-c2ccc(N3CCN(c4ccc(OC[C@@H]5CO[C@@](Cn6cncn6)(c6ccc(F)cc6F)C5)cc4)CC3)cc2)c1=O [POSACONAZOLE]
MIC (Clavispora lusitaniae [1]): 0.03 µg/mL (≈ 0.0428 µM) | MIC50 (Candida dubliniensis [2]): 0.06 µg/mL (≈ 0.0856 µM) | MIC90 (Candida dubliniensis [2]): 0.125 µg/mL (≈ 0.178 µM) | MIC50 (Yarrowia lipolytica): 0.125 µg/mL (≈ 0.178 µM) | MIC50 (Candida parapsilosis [3]): 0.125 µg/mL (≈ 0.178 µM) | MIC90 (Candida parapsilosis [3]): 0.25 µg/mL (≈ 0.357 µM) | MIC50 (Apiotrichum loubieri): 0.06 µg/mL (≈ 0.0856 µM) | MIC50 (Cryptococcus neoformans [4]): 0.125 µg/mL (≈ 0.178 µM) | MIC90 (Cryptococcus neoformans [4]): 0.5 µg/mL (≈ 0.713 µM) | MIC50 (Candida albicans [5]): 0.06 µg/mL (≈ 0.0856 µM) | MIC90 (Candida albicans [5]): 0.25 µg/mL (≈ 0.357 µM) | MIC50 (Candida tropicalis [6]): 0.125 µg/mL (≈ 0.178 µM) | MIC90 (Candida tropicalis [6]): 0.25 µg/mL (≈ 0.357 µM) | MIC50 (Candida tropicalis [7]): 0.125 µg/mL (≈ 0.178 µM) | MIC90 (Candida tropicalis [7]): 4 µg/mL (≈ 5.71 µM) | MIC50 (Candida parapsilosis [8]): 0.125 µg/mL (≈ 0.178 µM) | MIC90 (Candida parapsilosis [8]): 0.25 µg/mL (≈ 0.357 µM) | MIC50 ([Candida] haemuloni): ≥ 8 µg/mL | MIC90 ([Candida] haemuloni): ≥ 8 µg/mL | MIC50 ([Candida] inconspicua): 0.125 µg/mL (≈ 0.178 µM) | MIC50 (Candida tropicalis [9]): 0.125 µg/mL (≈ 0.178 µM) | MIC90 (Candida tropicalis [9]): 0.5 µg/mL (≈ 0.713 µM) | MIC50 (Nakaseomyces glabratus [10]): 1 µg/mL (≈ 1.43 µM) | MIC90 (Nakaseomyces glabratus [10]): ≥ 8 µg/mL | MIC50 (Candida albicans [11]): 0.03 µg/mL (≈ 0.0428 µM) | MIC90 (Candida albicans [11]): 0.125 µg/mL (≈ 0.178 µM) | MIC50 (Clavispora lusitaniae [12]): 0.06 µg/mL (≈ 0.0856 µM) | MIC90 (Clavispora lusitaniae [12]): 0.25 µg/mL (≈ 0.357 µM) | MIC50 (Candida albicans [13]): 0.06 µg/mL (≈ 0.0856 µM) | MIC90 (Candida albicans [13]): 0.125 µg/mL (≈ 0.178 µM) | MIC50 [14]: 0.5 µg/mL (≈ 0.713 µM) | MIC90 [14]: 0.5 µg/mL (≈ 0.713 µM) | MIC50 (Pichia kudriavzevii [15]): 0.25 µg/mL (≈ 0.357 µM) | MIC90 (Pichia kudriavzevii [15]): 0.5 µg/mL (≈ 0.713 µM) | MIC50 (Wickerhamomyces anomalus): 0.06 µg/mL (≈ 0.0856 µM) | MIC50 (Debaryomyces hansenii): 0.125 µg/mL (≈ 0.178 µM) | MIC50 (Kluyveromyces marxianus [16]): 0.125 µg/mL (≈ 0.178 µM) | MIC90 (Kluyveromyces marxianus [16]): 0.5 µg/mL (≈ 0.713 µM) | MIC50 (Kluyveromyces marxianus [17]): 0.125 µg/mL (≈ 0.178 µM) | MIC90 (Kluyveromyces marxianus [17]): 0.25 µg/mL (≈ 0.357 µM) | MIC50 (Cyberlindnera jadinii): 0.125 µg/mL (≈ 0.178 µM) | MIC50 (Cryptococcus neoformans [18]): 0.125 µg/mL (≈ 0.178 µM) | MIC90 (Cryptococcus neoformans [18]): 0.5 µg/mL (≈ 0.713 µM) | MIC50 (Trichosporon inkin): 0.06 µg/mL (≈ 0.0856 µM) | MIC50 (Magnusiomyces capitatus): 0.5 µg/mL (≈ 0.713 µM) | MIC (Candida dubliniensis [19]): ≤ 0.015 µg/mL | MIC50 (Rhodotorula mucilaginosa): 1 µg/mL (≈ 1.43 µM) | MIC50 (Clavispora lusitaniae [20]): 0.06 µg/mL (≈ 0.0856 µM) | MIC90 (Clavispora lusitaniae [20]): 0.25 µg/mL (≈ 0.357 µM) | MIC50 (Nakaseomyces glabratus [21]): 1 µg/mL (≈ 1.43 µM) | MIC90 (Nakaseomyces glabratus [21]): ≥ 8 µg/mL | MIC50 (Diutina rugosa): 0.06 µg/mL (≈ 0.0856 µM) | MIC50 (Trichosporon asahii): 0.25 µg/mL (≈ 0.357 µM) | MIC50 ([Candida] palmioleophila): 0.125 µg/mL (≈ 0.178 µM) | MIC50 [22]: 0.25 µg/mL (≈ 0.357 µM) | MIC90 [22]: 1 µg/mL (≈ 1.43 µM) | MIC50 (Trichosporon): 0.06 µg/mL (≈ 0.0856 µM) | MIC50 (Nakaseomyces glabratus [23]): 1 µg/mL (≈ 1.43 µM) | MIC90 (Nakaseomyces glabratus [23]): ≥ 8 µg/mL | MIC50 (Cryptococcus neoformans [24]): 0.125 µg/mL (≈ 0.178 µM) | MIC90 (Cryptococcus neoformans [24]): 0.5 µg/mL (≈ 0.713 µM) | MIC50 (Kodamaea ohmeri): 0.06 µg/mL (≈ 0.0856 µM) | MIC50 (Meyerozyma caribbica): 0.25 µg/mL (≈ 0.357 µM) | MIC90 (Meyerozyma caribbica): 1 µg/mL (≈ 1.43 µM) | MIC50 (Pichia kudriavzevii [25]): 0.25 µg/mL (≈ 0.357 µM) | MIC90 (Pichia kudriavzevii [25]): 0.5 µg/mL (≈ 0.713 µM) | MIC50 (Pichia kudriavzevii [26]): 0.25 µg/mL (≈ 0.357 µM) | MIC90 (Pichia kudriavzevii [26]): 0.5 µg/mL (≈ 0.713 µM) | MIC50 [27]: 0.25 µg/mL (≈ 0.357 µM) | MIC90 [27]: 0.5 µg/mL (≈ 0.713 µM) | MIC50 [28]: 0.06 µg/mL (≈ 0.0856 µM) | MIC50 (Saccharomyces cerevisiae): 0.03 µg/mL (≈ 0.0428 µM) | MIC50 (Candida parapsilosis [29]): 0.125 µg/mL (≈ 0.178 µM) | MIC90 (Candida parapsilosis [29]): 0.25 µg/mL (≈ 0.357 µM) | MIC50 (Candida dubliniensis [30]): 0.06 µg/mL (≈ 0.0856 µM) | MIC90 (Candida dubliniensis [30]): 0.125 µg/mL (≈ 0.178 µM) | MIC50 (Candida africana): ≤ 0.015 µg/mL

OC(Cn1cncn1)(Cn1cncn1)c1ccc(F)cc1F [FLUCONAZOLE]
MIC50 (Yarrowia lipolytica): 2 µg/mL (≈ 6.53 µM) | MIC50 (Apiotrichum loubieri): 2 µg/mL (≈ 6.53 µM) | MIC50 ([Candida] haemuloni): 32 µg/mL (≈ 104 µM) | MIC90 ([Candida] haemuloni): ≥ 64 µg/mL | MIC50 ([Candida] inconspicua): 16 µg/mL (≈ 52.2 µM) | MIC50 (Wickerhamomyces anomalus): 2 µg/mL (≈ 6.53 µM) | MIC50 (Debaryomyces hansenii): 0.125 µg/mL (≈ 0.408 µM) | MIC50 (Cyberlindnera jadinii): 1 µg/mL (≈ 3.27 µM) | MIC50 (Trichosporon inkin): 0.5 µg/mL (≈ 1.63 µM) | MIC50 (Magnusiomyces capitatus): 4 µg/mL (≈ 13.1 µM) | MIC50 (Rhodotorula mucilaginosa): ≥ 64 µg/mL | MIC50 (Diutina rugosa): 1 µg/mL (≈ 3.27 µM) | MIC50 (Trichosporon asahii): 2 µg/mL (≈ 6.53 µM) | MIC50 ([Candida] palmioleophila): 8 µg/mL (≈ 26.1 µM) | MIC50 (Trichosporon): 2 µg/mL (≈ 6.53 µM) | MIC50 (Kodamaea ohmeri): 8 µg/mL (≈ 26.1 µM) | MIC50 (Meyerozyma caribbica): 8 µg/mL (≈ 26.1 µM) | MIC90 (Meyerozyma caribbica): ≥ 64 µg/mL | MIC50 [28]: 2 µg/mL (≈ 6.53 µM) | MIC50 (Saccharomyces cerevisiae): 0.25 µg/mL (≈ 0.816 µM) | MIC50 (Candida africana): 0.25 µg/mL (≈ 0.816 µM)

C[C@@H](c1ncncc1F)[C@](O)(Cn1cncn1)c1ccc(F)cc1F [VORICONAZOLE]
MIC50 (Yarrowia lipolytica): ≤ 0.015 µg/mL | MIC50 (Apiotrichum loubieri): 0.03 µg/mL (≈ 0.0859 µM) | MIC50 ([Candida] haemuloni): ≥ 8 µg/mL | MIC90 ([Candida] haemuloni): ≥ 8 µg/mL | MIC50 ([Candida] inconspicua): 0.06 µg/mL (≈ 0.172 µM) | MIC50 (Wickerhamomyces anomalus): 0.03 µg/mL (≈ 0.0859 µM) | MIC50 (Debaryomyces hansenii): ≤ 0.015 µg/mL | MIC50 (Cyberlindnera jadinii): 0.03 µg/mL (≈ 0.0859 µM) | MIC50 (Trichosporon inkin): ≤ 0.015 µg/mL | MIC50 (Magnusiomyces capitatus): ≤ 0.015 µg/mL | MIC50 (Rhodotorula mucilaginosa): 2 µg/mL (≈ 5.73 µM) | MIC50 (Diutina rugosa): ≤ 0.015 µg/mL | MIC50 (Trichosporon asahii): 0.03 µg/mL (≈ 0.0859 µM) | MIC50 ([Candida] palmioleophila): 0.06 µg/mL (≈ 0.172 µM) | MIC50 (Trichosporon): 0.03 µg/mL (≈ 0.0859 µM) | MIC50 (Kodamaea ohmeri): 0.03 µg/mL (≈ 0.0859 µM) | MIC50 (Meyerozyma caribbica): 0.125 µg/mL (≈ 0.358 µM) | MIC90 (Meyerozyma caribbica): 1 µg/mL (≈ 2.86 µM) | MIC50 [28]: 0.03 µg/mL (≈ 0.0859 µM) | MIC50 (Saccharomyces cerevisiae): ≤ 0.015 µg/mL | MIC50 (Candida africana): ≤ 0.015 µg/mL
